pIC50: −log10 of the molar value. Where two headings read alike, the source gives them in different places.
Assays:
ATDC5/FOP-ACVR1 cells [1] = experiment: ALP assay (HTS and dose-response) in ATDC5/FOP-ACVR1; format: cell-based, mouse; details: same protocol as HTS (72 h)
[2] = AlamarBlue viability assay in ATDC5/FOP-ACVR1; details: mouse, ATDC5 cells stably expressing FOP-ACVR1 (ATDC5/FOP-ACVR1)
Protocol: (§1) Generation of ATDC5 stably expressing ACVR1. WT - or FOP-ACVR1 was inserted into doxycycline (Dox)- […]
(§2) (KW111/WT-ACVR1 or KW111/FOP-ACVR1). KW111/WT-ACVR1 or KW111/FOP-ACVR1 and PBaseII […]
(§3) FuGeneHD® (Promega) according to the manufacturer’s protocol, and the neomycin- resistant population (500 µg/mL) was selected. Further selection was performed by selecting a mCherry high positive population (< 5%) after six hours of Dox treatment, sorting it with fluorescent-activated cell sorting (FACS) using AriaII (BD) according to the manufacturer’s protocol, and designating it as ATDC5/WT-ACVR1 or ATDC5/FOP-ACVR1.
(§4) KW111 included PB, active transposable PB elements; TRE-mCMVP, Tetracycline Response Element and a minimal CMV promoter; rtTA, reverse tetracycline-controlled transactivator. PBaseII was an expression plasmid vector containing the PB transposase cDNA with optimized codon usage to human under the control […]
(§5) HTS campaign and follow-up screens. ATDC5/FOP-ACVR1 cells were plated in 96-well white plates (2,000 cells/well/40 µ L, Corning) in DMEM/F-12 supplemented with 5% (v/v) FBS. […]
(§6) 37 °C under 5% CO2. After 3 days incubation, Alkaline Phosphatase activity (ALP) or AlamarBlue activity was measured using Amplite™ Colorimetric Alkaline Phosphatase Assay Kit (AAT Bioquest) or alamarBlue® Cell Viability Reagent (Thermo Fisher Scientific) according to the manufacturer’s protocol, respectively. T h e […]
(§7) was measured on POWERSCAN4 (DS Pharma Biomedical) or EnVision® Multilabel Reader (PerkinElmer).
(§8) Inhibitory effects of the screened compounds are given as percent inhibition, which was calculated using the following equation: (1-([Abs of compound] - [Abs of Min])/([Abs of Max] - [Abs of Min]))× 100, where [Abs of Max] and [Abs of Min] are the mean Abs of DMSO control and 1 µM DMH-1, respectively. The Z’ factor, which is widely used as a measure of the assay quality of each plate, was calculated using the following equation: Z’ factor = 1 - 3 × ([SD of Max] + [SD of Min])/([Abs of Max] - [Abs of Min]) (SI Appendix, Fig.
(§9) The S/B (signal-to-background) ratio was calculated using the following equation: ([Abs of Max]/[Abs of Min]) (SI Appendix, Fig. S3B).
(§10) Using ATDC5/FOP-ACVR1 cells, we performed a first screening (n=2; test compounds = 1 µM, Fig. […]

ATDC5/FOP-ACVR1 cells [3] = experiment: ALP assay (HTS and dose-response) in ATDC5/FOP-ACVR1; format: cell-based, mouse
Protocol: ATDC5/FOP-ACVR1 cells were plated in 96-well white plates (2,000 cells/well/40 μL, Corning) in DMEM/F-12 supplemented with 5% (v/v) FBS. Two hours after incubation at 37°C under 5% CO2, 10 μL of test compounds (final 1 μM) was added, and the assay plates were incubated at 37°C under 5% CO2. After 3 days of incubation, ALP activity was measured using an Amplite Colorimetric Alkaline Phosphatase Assay Kit (AAT Bioquest) according to the manufacturer's protocol.
as §1, §2
FuGeneHD® (Promega) according to the manufacturer’s protocol, and the neomycin- resistant population (500 µg/mL) was selected. […]
as §6, with “HTS campaign and follow-up screens. […]” for “37 °C under 5% CO2.”, “respectively.” for “respectively. T h e”
as §7, §8
The S/B (signal-to-background) ratio was calculated using the following equation: ([Abs of Max]/[Abs of Min]) (SI Appendix, Fig. S3B). […]

mTOR signaling (p-S6) = experiment: p-S6 western blotting during chondrogenic induction of FOP-iMSCs with activin A; format: cell-based, human; details: 1 µM
Protocol: Western blotting. SDS- PAGE and blotting with whole-cell lysates were performed by standard procedures.
Protein bands were detected with ECL Prime Western Blotting Detection Reagent (GE Healthcare) and visualized using BIO-RAD Molecular Imager® Chemi-DocTM XRS+ with Image LabTM software (Bio-Rad).
All data (relative intensity) were corrected by β-actin.
Antibodies for western blotting and immunostaining.
N ame Company Cat. No Concentration
Human Activin RIA/ALK-2 Antibody R&D Systems) AF637 1:100
Anti-human Vimentin antibody Abcam ab16700 1:40
Collagen I Antibody Novus NB600- 1:100
Anti-rabbit IgG, HRP-linked Antibody Cell Signaling #7074 1:10000 […]
2nd Goat anti-Rabbit IgG (H+L) Secondary Antibody, Invitrogen A-11008 1:100 antibody Alexa Fluor® 488 conjugate
Goat anti-Rabbit IgG (H+L) Secondary Antibody, Invitrogen A-21428 1:500

FOP-iMSCs = experiment: 2D chondrogenic induction of FOP-iMSCs with activin A (GAG, Alcian blue); format: cell-based, human; details: activin A, 7 days
BMP signaling (BRE-Luc) = experiment: BRE-Luc reporter assay in FOP-iMSCs; format: cell-based, human; details: activin A and compounds for 16 hr
Protocol: (§11) FOP-iMSCs transiently transfected with BRE-Luc (A) or CAGA-Luc (B) with CMV-Renilla were stimulated with activin A and compounds for 16 hr (A) or 3 hr (B). […] One day after siRNA transfection, chondrogenic induction with activin A was initiated, and after 7 days the cells were harvested. […] FOP-iMSCs cultured with 10% FBS were treated with 100 nM rapamycin (Rapa) or TAK 165 (TAK) for 2 hr, and the cells were harvested. […] 1 μM TAK, 1 μM CP (CP-724714, another selective ERBB2 inhibitor), or 10 nM Rapa were applied in the experiments.

ATDC5/FOP-ACVR1 cells [4] = experiment: AlamarBlue viability assay in ATDC5/FOP-ACVR1; details: for Viability (%) @10 μM: AlamarBlue, ATDC5/FOP-ACVR1, 10 μM
Protocol: as §1, §2, §3, §4, §5, §6, §7, §8, §9, §10

[5] = system: TGF-β signaling (CAGA-Luc); experiment: CAGA-Luc reporter assay in FOP-iMSCs; format: cell-based, human; details: activin A and compounds for 3 hr
Protocol: as §11

Molecule	pIC50 (ATDC5/FOP-ACVR1 cells [1]; Mus musculus)	viability at 3 days, 10 µM [2]	pIC50 (ATDC5/FOP-ACVR1 cells [1])	Viability (%) @10 μM (ATDC5/FOP-ACVR1 cells [4])	further results
CC(C)(C)Cn1c(N)nc2ccc(-c3[nH]c(C(C)(C)C)nc3-c3ccc(F)cc3)nc21 [LY2228820]	7.96	75%			
C=C1/C(=C\C=C2/CCC[C@]3(C)[C@@H]([C@H](C)CCCC(C)(C)O)CC[C@@H]23)C[C@@H](O)C[C@@H]1O [Calcitriol]		81%			pIC50 (ATDC5/FOP-ACVR1 cells [3]; Mus musculus, 72 h, read-out: IC50 (ALP assay)): 9.40
CCN(CC)CCCCNc1ncc2cc(-c3c(Cl)cccc3Cl)c(NC(=O)NC(C)(C)C)nc2n1 [PD 161570]			6.50	63%	p-S6 levels from 2 hr after treatment (mTOR signaling (p-S6)): significantly inhibited; inhibition of glycosaminoglycan (GAG) production (FOP-iMSCs; 1 μM): potent inhibition; suppression of chondrogenic induction (GAG), dose dependence (FOP-iMSCs): dose-dependent; BRE-Luc (BMP-specific luciferase reporter) (BMP signaling (BRE-Luc)): inhibited; CAGA-Luc (TGF-β-responsive luciferase reporter) [5]: inhibited
CC(C)Oc1ccc(-c2cnc3c(-c4ccnc5ccccc45)cnn3c2)cc1 [DMH-1]			7.68	92%	ALP activity of ATDC5/FOP-ACVR1 (ATDC5/FOP-ACVR1 cells [3]; 72 hr after Dox and compound, without BMP stimulation): inhibited; viability (AlamarBlue) of ATDC5/FOP-ACVR1 (ATDC5/FOP-ACVR1 cells [4]; 72 hr after Dox and compound): not
pertuzumab: ERBB2-selective neutralizing antibody					effect on GAG in the chondrogenesis of FOP-iMSCs (ERBB2 neutralizing antibodies) (FOP-iMSCs; 1 µg/mL): no effect
C=C1/C(=C\C=C2/CCC[C@]3(C)[C@@H]([C@H](C)CCCC(C)C)CC[C@@H]23)C[C@@H](O)C[C@@H]1O [Alfacalcidol]	6.28	54%			
Nc1ncnc2c1c(-c1cccc(OCc3ccccc3)c1)cn2C1CC(CN2CCCC2)C1 (stereo not shown) [NVP-ADW742]			5.18	-1%	
COc1ccc(-c2ccc3c(N4CCOC[C@@H]4C)nc(N4CCOC[C@@H]4C)nc3n2)cc1CO [AZD8055]	7.11	25%			
